Test [1] has as its target BTK protein in human whole blood (Homo sapiens (Human), UniProt Q06187). The experiment in a line: Btk protein in human whole blood MSD ELISA based assay (Btk degradation). The format is cell-based. To be noted: human whole blood from healthy donors, 6 hours at 37° C., half maximal degradation concentration; read-out: hWB BTK DC50. The method in brief:
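Fresh healthy-donor human whole blood incubated 6 h at 37 °C with 8-point 1:4 dilutions from 3 μM (final 0.2% DMSO), in duplicate. Remaining BTK in lysates measured by MSD sandwich ELISA. DC50 by non-linear regression; Dmax as maximal degradation versus DMSO.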
In general terms: ELISA stands for enzyme-linked immunosorbent assay.

In test [2] the target is Human BTK enzyme, wild-type (Homo sapiens (Human), UniProt Q06187). The experiment in a line: BTK Screening: Btk kinase activity, electrophoretic mobility shift assay (MSA). To be noted: 0.5 nM BTK enzyme, 50 μM ATP, 15 minutes pre-incubation, 3 hours at 25° C. The format is biochemical. Here is the method:
Btk kinase activity was measured in vitro using an electrophoretic mobility shift assay (MSA). The ability of Btk to phosphorylate a fluorescent peptide substrate (FAM-GEEPLYWSFPAKKK-NH2) was measured. The kinase reactions were assembled in a total volume of 25 μL per well in 384 well plates. The following was added to each well: compound buffer (or control); enzyme buffer; and substrate buffer, as further described below.
Specifically the following was added: (1) compound buffer or control: 5μL of 5× compound buffer [(5× compound buffer comprised of: 1× Master Buffer, X μM test compound in 5% dimethyl sulfoxide; (2× Master Buffer comprised of 200 mM HEPES, pH7.5, 0.2% BSA, and 0.02% Triton X-100)]; and (2) enzyme buffer: 10 μL of 2.5× enzyme buffer (1× Master Buffer, 12.5 mM MgCl2, 2.5 mM DTT, 25 μM sodium orthovanadate, 25 μM beta-glycerophosphate, and 1.25 nM BTK enzyme). Human BTK enzyme Nanosyn-293HEK, wild-type, available from Nanosyn, Santa Clara, CA). Enzyme and compound were pre-incubated for 15 minutes. Additionally, the following was added: (3) substrate buffer: 10 μL of 2.5× substrate buffer (1× Master Buffer, […], and 2.5 μM of the peptide substrate FAM). Each plate was incubated at 25° C. for 3 hours. The reaction was terminated by adding to each well: 45 μL of 1.55× stop buffer (1× Master Buffer and 31 mM EDTA). The final reaction mixture was as follows: 100 mM HEPES, pH7.5; 0.1% BSA; 0.01% Triton X-100; 1 mM DTT; 5 mM MgCl2; 10 μM sodium orthovanadate; 10 μM beta-glycerophosphate; 50 μM ATP; 1% dimethyl sulfoxide (from compound); 1μM fluorescent peptide substrate and 0.5 nM BTK- enzyme. The terminated reactions were analyzed using a 12 channel LABCHIP® 3000 microfluidic detection instrument (available from Caliper Life Sciences, Waltham, MA). […] As substrate and product peptides were separated, two peaks of fluorescence were observed. Change in the relative fluorescence intensity of the substrate and product peaks was the parameter measured, reflecting enzyme activity. In the presence of an active compound, the ratio between product and substrate was altered. The signal of the product decreased, while the signal of the substrate increased. Capillary electrophoregrams (RDA acquisition files) were analyzed using HTS Well Analyzer software (available from Caliper Life Sciences, Waltham, MA).
Activity in each sample was determined as the product to sum ratio (PSR): P/(S+P), where P was the peak height of the product peptide and S was the peak height of the substrate peptide. For each compound, enzyme activity was measured at various concentrations (12 concentrations of compound spaced by 3× dilution intervals). Negative control samples (0% inhibition in the absence of an active compound) and positive control samples (100% inhibition, in the presence of 20 mM EDTA) were assembled in replicates of four and were used to calculate % inhibition values for each active compound at each concentration. Percent inhibition (Pinh) was determined using following equation: Pinh=(PSR0%−PSRinh)/(PSR0%−PSR100%)*100, where PSRinh was the product sum ratio in the presence of inhibitor, PSR0% was the average product sum ratio in the absence of active compound and PSR100% was the average product sum ratio in 100%-inhibition control samples.
The IC50 values of active compounds were determined by 4 parameter sigmoidal dose response model fitting of the inhibition curves (Pinh versus inhibitor concentration) using XLfit® 4 software (IDBS, Boston, MA). The IC50 values are reported in Table 2 in the BTK IC50 (nM) column.

Our source for the DC50 and IC50 values is patent US20240109877A1, “PYRIMIDINES FOR DEGRADING BRUTON'S TYROSINE KINASE” (AbbVie Inc., priority 2022, published 2024).

Molecules are shown by their SMILES. pIC50: −log10 of the molar value.

Sequence of BTK protein in human whole blood (Q06187 whole entry): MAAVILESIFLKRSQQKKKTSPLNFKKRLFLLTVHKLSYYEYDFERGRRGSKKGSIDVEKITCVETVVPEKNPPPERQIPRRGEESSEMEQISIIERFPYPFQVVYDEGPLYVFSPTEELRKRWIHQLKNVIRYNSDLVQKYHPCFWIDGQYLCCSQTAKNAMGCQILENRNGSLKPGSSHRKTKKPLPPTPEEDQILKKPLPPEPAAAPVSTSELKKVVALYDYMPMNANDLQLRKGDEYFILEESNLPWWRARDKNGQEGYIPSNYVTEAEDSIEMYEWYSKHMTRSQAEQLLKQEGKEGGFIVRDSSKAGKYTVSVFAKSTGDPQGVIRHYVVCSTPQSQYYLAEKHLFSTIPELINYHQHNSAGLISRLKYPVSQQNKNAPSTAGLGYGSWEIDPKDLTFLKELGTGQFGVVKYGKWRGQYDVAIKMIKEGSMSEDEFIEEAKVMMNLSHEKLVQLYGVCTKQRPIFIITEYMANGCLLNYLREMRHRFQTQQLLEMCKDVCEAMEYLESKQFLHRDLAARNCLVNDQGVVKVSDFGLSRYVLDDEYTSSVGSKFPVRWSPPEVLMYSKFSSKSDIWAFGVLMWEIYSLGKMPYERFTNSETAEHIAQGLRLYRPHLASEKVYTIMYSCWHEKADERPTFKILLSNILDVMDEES
Sequence of Human BTK enzyme, wild-type (Q06187 whole entry): as above

For orientation: DC50 means the concentration giving 50% degradation. Usually pIC50 stands for the IC50 on a negative log10 scale, so that one unit is a factor of ten. In the case of `Cc1cc(-c2cc(Nc3ccc(N4CCN(CCc5ccc(N6CCC(=O)NC6=O)cc5)C[C@@H]4C(C)C)cn3)ncn2)ccc1[C@@H](C)NC(=O)c1nc(C(C)(C)C)no1` [Example 13, 3-tert-butyl-N-[(1R)-1-{4-[6-({5-[(2S)-4-{2-[4-(2,4-dioxo-1,3-diazinan-1-yl)phenyl]ethyl}-2-(propan-2-yl)piperazin-1-yl]pyridin-2-yl}amino)pyrimidin-4-yl]-2-methylphenyl}ethyl]-1,2,4-oxadiazole-5-carboxamide], the half-maximal degradation concentration (DC50) in test [1] amounted to 17.3 nM. Moreover, the pIC50 in test [2] was 9.85.

As to `C[C@@H](NC(=O)c1nc(C(C)(C)C)no1)c1ccc(-c2cc(Nc3ccc(N4CCN(CCc5ccc(N6CCC(=O)NC6=O)cc5)C[C@@H]4C)cn3)ncn2)cc1Cl` [Example 14, 3-tert-butyl-N-[(1R)-1-{2-chloro-4-[6-({5-[(2S)-4-{2-[4-(2,4-dioxo-1,3-diazinan-1-yl)phenyl]ethyl}-2-methylpiperazin-1-yl]pyridin-2-yl}amino)pyrimidin-4-yl]phenyl}ethyl]-1,2,4-oxadiazole-5-carboxamide], in test [1], the DC50 turned out to be 7.91 nM. Moreover, the negative-log IC50 (pIC50) in test [2] is 10.28.

Regarding `Cc1cc(-c2cc(Nc3ccc(N4CCN(CCc5ccc(N6CCC(=O)NC6=O)cc5)C[C@@H]4C)cc3)ncn2)ccc1[C@@H](C)NC(=O)c1nc(C(C)(C)C)no1` [Example 18], the half-maximal degradation concentration (DC50) in test [1] is 15.6 nM. Besides, in test [2], the pIC50 was 9.30.

For `Cc1cc(-c2cc(Nc3ccc(CCN4CCN(c5ccc(N6CCC(=O)NC6=O)cc5)CC4)cn3)ncn2)ccc1[C@@H](C)NC(=O)c1nc(C(C)(C)C)no1` [Example 19], the DC50 in test [1] worked out at 3 nM. Besides, in test [2], the pIC50 is 10.00.
